One compound from BindingDB's records for doi:10.1021/jm970377o (Abbott Laboratories, 1998) can be followed below.

The assay is described as follows: Compound was evaluated for functional potency and efficacy at human muscle type Nicotinic acetylcholine receptor in TE671 cells.

Regarding `CC(=O)C1=CC[N+](C)(C)CC1` [4-Acetyl-1,1-dimethyl-1,2,3,6-tetrahydro-pyridinium; iodide], the EC50 amounted to 100 nM.

One may read the EC50 as the midpoint of the concentration-response curve. High values mean a less potent agent, low ones a more potent agent.
